From patent US20240025949A1, “Beta-Arrestin Effectors and Compositions and Methods of Use Thereof” (Trevena, Inc., priority 2021, published 2024) come the findings set out here.

This assay concerns the target T1, rat AT1aR (Rattus norvegicus, UniProt P25095).
T1 construct: ProLink (β-galactosidase enzyme-donor fragment, from the pCMV-ProLink vector)
T1 sequence (P25095 1-359): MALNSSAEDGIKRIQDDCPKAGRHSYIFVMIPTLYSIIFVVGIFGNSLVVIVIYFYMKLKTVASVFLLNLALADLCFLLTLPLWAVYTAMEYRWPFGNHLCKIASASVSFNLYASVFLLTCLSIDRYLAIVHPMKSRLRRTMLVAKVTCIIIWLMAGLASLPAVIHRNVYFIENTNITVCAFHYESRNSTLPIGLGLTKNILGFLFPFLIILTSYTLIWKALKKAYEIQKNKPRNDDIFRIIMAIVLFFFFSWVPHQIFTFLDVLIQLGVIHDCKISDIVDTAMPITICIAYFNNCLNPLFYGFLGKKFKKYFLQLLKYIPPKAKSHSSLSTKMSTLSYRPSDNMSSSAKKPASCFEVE
In words: PathHunter β-arrestin-2 recruitment assay, rat AT1aR. The assay is classed as cell-based. The conditions noted are these: PathHunter β-arrestin HEK293 cells, inactive = EC50 greater than 10 uM.

Structures are written as SMILES.

Protocol: B-arrestin-2 recruitment to the human and rat angiotensin 2 type 1 receptor (human AT1R and rat AT1aR, respectively) was measured with the PathHunter™ β-arrestin assay (DiscoveRx Corporation, Fremont CA). Cells, plasmid(s), and detection reagent(s) were purchased from DiscoveRx, and assays were performed per the manufacturer's instructions. Human AT1R and rat AT1aR were cloned into the pCMV-ProLink vector, verified by sequencing, and transfected into PathHunter β-arrestin HEK293 cells. Stably transfected clonal cell lines were selected with Hygromycin and G418. These clonal cell lines were used for all experiments.
For assays, 25,000 cells were seeded per well in 96-well microplates in volumes of 90 μL and allowed to grow overnight at 37° C. in 5% CO2. Peptides provided herein were dissolved in deionized water to a concentration of 1 mM. Peptides were then further diluted in assay buffer (Hank's balanced salt solution with 20 mM HEPES) to add peptide to the cells to reach final concentrations ranging from 10 μM to 1 pM. […]
The microplates were then incubated at room temperature for 60 minutes, and then luminescence was measured using a NOVOstar microplate reader purchased from BMG Labtech. B-arrestin-2 recruitment to receptors was measured as relative luminescence intensity expressed in arbitrary units.

Regarding `CCCCC(=O)N(Cc1ccc(-c2ccccc2-c2nnn[nH]2)cc1)[C@H](C(=O)O)C(C)C` [Valsartan], the “rat AT1aR b-arrestin2 EC50 (M)” value is “inactive”.
